Key:
Assay type in all cases: in vivo
[1] = tested on: ragweed (common ragweed, Ambrosia elatior); assay: Test A preemergence, directed soil spray, visual injury rating; settings: 0 is no effect, 100 is complete control
In short: (§1)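 Compounds in a surfactant-containing solvent were applied as a directed soil spray preemergence, or postemergence to plants 2-10 cm tall at the one- to two-leaf stage, in loam-sand blend. After about 10 d in the greenhouse, injury was rated visually against untreated controls on a 0-100 scale (100 = complete control).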

[2] = tested on: foxtail, giant (giant foxtail, Setaria faberii); assay: as above; settings: 0 is no effect, 100 is complete control
In short: as §1

[3] = tested on: barnyardgrass (Echinochloa crus-galli); assay: as above; settings: 0 is no effect, 100 is complete control
In short: as §1

[4] = tested on: pigweed (Amaranthus retroflexus); assay: as above; settings: 0 is no effect, 100 is complete control
In short: as §1

[5] = tested on: ryegrass, It. (Italian ryegrass, Lolium multiflorum); assay: as above; settings: 0 is no effect, 100 is complete control
In short: as §1

kochia (Kochia scoparia) [6] = assay: as above; settings: 0 is no effect, 100 is complete control
In short: as §1

[7] = tested on: galium (catchweed bedstraw, Galium aparine); assay: Test A postemergence application, visual injury rating; settings: 0 to 100 scale, 0 no effect, 100 complete control
In short: as §1

[8] = tested on: ragweed (common ragweed, Ambrosia elatior); assay: as above; settings: 0 to 100 scale, 0 no effect, 100 complete control
In short: as §1

[9] = tested on: foxtail, giant (giant foxtail, Setaria faberii); assay: as above; settings: 0 to 100 scale, 0 no effect, 100 complete control
In short: as §1

[10] = tested on: barnyardgrass (Echinochloa crus-galli); assay: as above; settings: 0 to 100 scale, 0 no effect, 100 complete control
In short: as §1

[11] = tested on: wheat (Triticum aestivum); assay: as above; settings: 0 to 100 scale, 0 no effect, 100 complete control
In short: as §1

[12] = tested on: pigweed (Amaranthus retroflexus); assay: as above; settings: 0 to 100 scale, 0 no effect, 100 complete control
In short: as §1

corn (Zea mays) = assay: as above; settings: 0 to 100 scale, 0 no effect, 100 complete control
In short: as §1

[13] = tested on: ryegrass, It. (Italian ryegrass, Lolium multiflorum); assay: as above; settings: 0 to 100 scale, 0 no effect, 100 complete control
In short: as §1

[14] = tested on: blackgrass (Alopecurus myosuroides); assay: as above; settings: 0 to 100 scale, 0 no effect, 100 complete control
In short: as §1

kochia (Kochia scoparia) [15] = assay: as above; settings: 0 to 100 scale, 0 no effect, 100 complete control
In short: as §1

[16] = tested on: ducksalad (Heteranthera limosa); assay: Test B flooded paddy test, visual rating; settings: Flood, 250 g ai/ha, applied to paddy water, rated after 13 to 15 d
In short: (§2)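 Plants grown to the 2-leaf stage. At treatment, pots were flooded to 3 cm above the soil, compound was applied directly to the paddy water, and that depth was held throughout. After 13 to 15 d in the greenhouse, response was rated visually against controls on a 0 (no effect) to 100 (complete control) scale.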

rice (Oryza sativa) = assay: Test B flooded paddy test, visual rating; settings: Flood, 250 g ai/ha, applied to paddy water, rated after 13 to 15 d
In short: as §2

[17] = tested on: sedge, umbrella (small-flower umbrella sedge, Cyperus difformis); assay: Test B flooded paddy test, visual rating; settings: Flood, 250 g ai/ha, applied to paddy water, rated after 13 to 15 d
In short: as §2

[18] = tested on: barnyardgrass (Echinochloa crus-galli); assay: Test B flooded paddy test, visual rating; settings: Flood, 250 g ai/ha, applied to paddy water, rated after 13 to 15 d
In short: as §2

SMILES	Plant response rating (0 to 100 scale), Ragweed ([1]; 125 g ai/ha)	Plant response rating (0 to 100 scale), Foxtail, Giant ([2]; 125 g ai/ha)	Plant response rating (0 to 100 scale), Barnyardgrass ([3]; 125 g ai/ha)	Plant response rating (0 to 100 scale), Pigweed ([4]; 125 g ai/ha)	Plant response rating (0 to 100 scale), Ryegrass, It. ([5]; 125 g ai/ha)	Plant response rating (0 to 100 scale), Kochia (kochia (Kochia scoparia) [6]; 125 g ai/ha)	Galium plant response rating ([7]; 125 g ai/ha)	Ragweed plant response rating ([8]; 125 g ai/ha)	Foxtail, Giant plant response rating ([9]; 125 g ai/ha)	Barnyardgrass plant response rating ([10]; 125 g ai/ha)	Wheat plant response rating ([11]; 125 g ai/ha)	Pigweed plant response rating ([12]; 125 g ai/ha)	Corn plant response rating (corn (Zea mays); 125 g ai/ha)	Ryegrass, It. plant response rating ([13]; 125 g ai/ha)	Blackgrass plant response rating ([14]; 125 g ai/ha)	Kochia plant response rating (kochia (Kochia scoparia) [15]; 125 g ai/ha)	Ducksalad plant response rating (0 to 100 scale, 0 is no effect, 100 is complete control) [16]	Rice plant response rating (0 to 100 scale, 0 is no effect, 100 is complete control) (rice (Oryza sativa))	Sedge, Umbrella plant response rating (0 to 100 scale, 0 is no effect, 100 is complete control) [17]	Barnyardgrass plant response rating (0 to 100 scale, 0 is no effect, 100 is complete control) [18]	also measured
CCC(=O)Oc1c(C)nn(C)c(=O)c1-c1c(C)ccc2sccc12 [Compound 31]	20	10	10	90	90	20	90	70	10	10	20	90	20	100	50	90	0	0	0	0	Plant response rating (0 to 100 scale), Ragweed ([1]; 500 g ai/ha): 90; Plant response rating (0 to 100 scale), Foxtail, Giant ([2]; 500 g ai/ha): 90; Plant response rating (0 to 100 scale), Barnyardgrass ([3]; 500 g ai/ha): 90; Plant response rating (0 to 100 scale), Pigweed ([4]; 500 g ai/ha): 100; Plant response rating (0 to 100 scale), Ryegrass, It. ([5]; 500 g ai/ha): 100; Plant response rating (0 to 100 scale), Kochia (kochia (Kochia scoparia) [6]; 500 g ai/ha): 90; Galium plant response rating ([7]; 500 g ai/ha): 100; Ragweed plant response rating ([8]; 500 g ai/ha): 80; Foxtail, Giant plant response rating ([9]; 500 g ai/ha): 80; Barnyardgrass plant response rating ([10]; 500 g ai/ha): 60; Wheat plant response rating ([11]; 500 g ai/ha): 30; Pigweed plant response rating ([12]; 500 g ai/ha): 90; Corn plant response rating (corn (Zea mays); 500 g ai/ha): 40; Ryegrass, It. plant response rating ([13]; 500 g ai/ha): 100; Blackgrass plant response rating ([14]; 500 g ai/ha): 60; Kochia plant response rating (kochia (Kochia scoparia) [15]; 500 g ai/ha): 100
Cc1nn(C)c(=O)c(-c2cccc3sccc23)c1O [Compound 32]	0	10	20	40	70	30	40	0	0	0	0	30	0	70	0	20	40	0	50	0	Plant response rating (0 to 100 scale), Ragweed ([1]; 500 g ai/ha): 80; Plant response rating (0 to 100 scale), Foxtail, Giant ([2]; 500 g ai/ha): 50; Plant response rating (0 to 100 scale), Barnyardgrass ([3]; 500 g ai/ha): 40; Plant response rating (0 to 100 scale), Pigweed ([4]; 500 g ai/ha): 100; Plant response rating (0 to 100 scale), Ryegrass, It. ([5]; 500 g ai/ha): 100; Plant response rating (0 to 100 scale), Kochia (kochia (Kochia scoparia) [6]; 500 g ai/ha): 40; Galium plant response rating ([7]; 500 g ai/ha): 80; Ragweed plant response rating ([8]; 500 g ai/ha): 40; Foxtail, Giant plant response rating ([9]; 500 g ai/ha): 40; Barnyardgrass plant response rating ([10]; 500 g ai/ha): 50; Wheat plant response rating ([11]; 500 g ai/ha): 20; Pigweed plant response rating ([12]; 500 g ai/ha): 30; Corn plant response rating (corn (Zea mays); 500 g ai/ha): 0; Ryegrass, It. plant response rating ([13]; 500 g ai/ha): 90; Blackgrass plant response rating ([14]; 500 g ai/ha): 30; Kochia plant response rating (kochia (Kochia scoparia) [15]; 500 g ai/ha): 70
CCC(=O)Oc1c(C)nn(C)c(=O)c1-c1ccc(Cl)c2ccsc12 [Compound 36]	0	0	0	90	90	0	100	0	0	10	0	30	0	80	0	30	0	0	80	0	Plant response rating (0 to 100 scale), Ragweed ([1]; 31 g ai/ha): 0; Plant response rating (0 to 100 scale), Foxtail, Giant ([2]; 31 g ai/ha): 0; Plant response rating (0 to 100 scale), Barnyardgrass ([3]; 31 g ai/ha): 0; Plant response rating (0 to 100 scale), Pigweed ([4]; 31 g ai/ha): 0; Plant response rating (0 to 100 scale), Ryegrass, It. ([5]; 31 g ai/ha): 20; Plant response rating (0 to 100 scale), Kochia (kochia (Kochia scoparia) [6]; 31 g ai/ha): 0; Galium plant response rating ([7]; 31 g ai/ha): 90; Ragweed plant response rating ([8]; 31 g ai/ha): 0; Foxtail, Giant plant response rating ([9]; 31 g ai/ha): 0; Barnyardgrass plant response rating ([10]; 31 g ai/ha): 0; Wheat plant response rating ([11]; 31 g ai/ha): 0; Pigweed plant response rating ([12]; 31 g ai/ha): 0; Corn plant response rating (corn (Zea mays); 31 g ai/ha): 0; Ryegrass, It. plant response rating ([13]; 31 g ai/ha): 30; Blackgrass plant response rating ([14]; 31 g ai/ha): 0; Kochia plant response rating (kochia (Kochia scoparia) [15]; 31 g ai/ha): 20
Cc1nn(C)c(=O)c(-c2ccc(Cl)c3sc(Br)cc23)c1O [Compound 37]	50	0	0	0	0	0	40	0	0	0	0	0	0	0	0	10	0	0	0	0	Plant response rating (0 to 100 scale), Ragweed ([1]; 31 g ai/ha): 0; Plant response rating (0 to 100 scale), Foxtail, Giant ([2]; 31 g ai/ha): 0; Plant response rating (0 to 100 scale), Barnyardgrass ([3]; 31 g ai/ha): 0; Plant response rating (0 to 100 scale), Pigweed ([4]; 31 g ai/ha): 0; Plant response rating (0 to 100 scale), Ryegrass, It. ([5]; 31 g ai/ha): 0; Plant response rating (0 to 100 scale), Kochia (kochia (Kochia scoparia) [6]; 31 g ai/ha): 0; Galium plant response rating ([7]; 31 g ai/ha): 20; Ragweed plant response rating ([8]; 31 g ai/ha): 0; Foxtail, Giant plant response rating ([9]; 31 g ai/ha): 0; Barnyardgrass plant response rating ([10]; 31 g ai/ha): 0; Wheat plant response rating ([11]; 31 g ai/ha): 0; Pigweed plant response rating ([12]; 31 g ai/ha): 0; Corn plant response rating (corn (Zea mays); 31 g ai/ha): 0; Ryegrass, It. plant response rating ([13]; 31 g ai/ha): 0; Blackgrass plant response rating ([14]; 31 g ai/ha): 0; Kochia plant response rating (kochia (Kochia scoparia) [15]; 31 g ai/ha): 0
Cn1nc(Cl)c(O)c(-c2cccc3[nH]nnc23)c1=O [Compound 38]	0	0	0	0	0	0	0	0	0	0	0	0	0	0	0	0	0	0	0	0	Plant response rating (0 to 100 scale), Ragweed ([1]; 31 g ai/ha): 0; Plant response rating (0 to 100 scale), Foxtail, Giant ([2]; 31 g ai/ha): 0; Plant response rating (0 to 100 scale), Barnyardgrass ([3]; 31 g ai/ha): 0; Plant response rating (0 to 100 scale), Pigweed ([4]; 31 g ai/ha): 0; Plant response rating (0 to 100 scale), Ryegrass, It. ([5]; 31 g ai/ha): 0; Plant response rating (0 to 100 scale), Kochia (kochia (Kochia scoparia) [6]; 31 g ai/ha): 0; Galium plant response rating ([7]; 31 g ai/ha): 0; Ragweed plant response rating ([8]; 31 g ai/ha): 0; Foxtail, Giant plant response rating ([9]; 31 g ai/ha): 0; Barnyardgrass plant response rating ([10]; 31 g ai/ha): 0; Wheat plant response rating ([11]; 31 g ai/ha): 0; Pigweed plant response rating ([12]; 31 g ai/ha): 0; Corn plant response rating (corn (Zea mays); 31 g ai/ha): 0; Ryegrass, It. plant response rating ([13]; 31 g ai/ha): 0; Blackgrass plant response rating ([14]; 31 g ai/ha): 0; Kochia plant response rating (kochia (Kochia scoparia) [15]; 31 g ai/ha): 0
